Test results: PubChem BioAssay (NCI)
Several values for one entry are separate records, joined by “and”; a condition that tells them apart may be missing. Equal entries are not always repeated.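 Method: 48-hour compound exposure of cells in 96-well plates, five concentrations, linear interpolation of endpoints. Definition used: TGI = concentration required for complete inhibition of growth.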

tested on: CAKI-1 renal; assay: NCI-60 cell line screen, 48 h

`COc1ccc(C2OC(c3ccncc3)=NN2C)cc1OC` (stereo not given) and `COc1ccc2c(c1)CCN1CCc3ccccc3CC21` (stereo not given) cannot be ordered by TGI: > 100 µM for the first, > 100 µM for the second.

`CC12CCC(O)CC1CCC1C2CCC2(C)C(C(=O)CC(O)C(F)(F)F)CCC12` (stereo not given) and `CC(=O)O[C@H]1CC[C@@]2(C)C(=CC[C@H]3[C@@H]4C[C@H](N5CCOCC5)[C@H](OC(C)=O)[C@@]4(C)CC[C@@H]32)C1` cannot be ordered by TGI: > 62.3 µM for the first, > 100 µM for the second.

Compared with `CC(C)(C)OC(=O)NCCCNC1(c2cc3ccccc3s2)CCCCC1`, `Nc1nc(Cl)cc(NCC2(CO)CCCC2)n1` is higher in TGI: 26.8 µM for the first, > 100 µM for the second.

Going from `COC1C=COC2(C)Oc3c(C)c(O)c4c(O)c(c(C5SCCS5)c(O)c4c3C2=O)NC(=O)C(C)=C/C=C\C(C)C2OC(C)(C)OC(C2C)C(C)C(OC(C)=O)C1C` (stereo not given) to `C=C([C@@]1(O)C[C@H]2[C@H](CCC2(OC)OC)[C@@H]2c3ccccc3O[C@@H]21)[Si](C)(C)C`, the TGI rises from 27.7 µM to > 100 µM.

`C=CCOc1ccc(C2(O)c3ccccc3C3=NCCCN32)cc1` (stereo not given) and `On1c(-c2ccccc2)nc2ccccc2c1=S` cannot be ordered by TGI: > 100 µM for the first, > 100 µM for the second.

Going from `CCOC(=O)NC(Nc1ccc([N+](=O)[O-])cc1)(C(F)(F)F)C(F)(F)F` to `CCC/C(Cl)=N\OC(=O)Nc1ccc(OC(F)(F)F)cc1`, the TGI falls from > 100 µM to 3.05 µM.

`C[N+]12CCCCC1C(CN1C(=O)Cc3c4ccccc4c(c4ccccc34)CC1=O)CCC2` (stereo not given) and `CC1=NNC(=O)C1C(CC(=O)c1c[nH]c2ccccc12)C(=O)O` (stereo not given) cannot be ordered by TGI: > 100 µM for the first, > 100 µM for the second.

First: CCN1CCC(O)(/C=C/c2ccc(C)cc2C)C(C(=O)/C=C/c2ccc(C)cc2C)C1 (stereo not given)
Second: Nc1ccc(C(=O)N2CCC[C@H]2CO)c(N)c1
The TGI of the first is lower: 9.85 µM for the first, > 100 µM for the second.

`Nc1ccc(S2(c3ccc(N)cc3)C=C(c3ccccc3)C(c3ccccc3)=C2)cc1` and `COC(=O)C1=C(C)NC(C)=C(C(=O)OC)C1c1nc2sccn2c1[N+](=O)[O-]` cannot be ordered by TGI: > 22.6 µM for the first, > 100 µM for the second.

In the case of `CN(C)CCOC1(Cc2ccc(F)cc2)CCC(C(C)(C)C)CC1` (stereo not given), the TGI is reported as 19.4 µM and 21 µM.

tested on: OVCAR-5 ovarian; assay: NCI-60 cell line screen, 48 h

`COc1ccc(C2OC(c3ccncc3)=NN2C)cc1OC` (stereo not given) and `COc1ccc2c(c1)CCN1CCc3ccccc3CC21` (stereo not given) cannot be ordered by TGI: > 100 µM for the first, > 100 µM for the second.

`CC12CCC(O)CC1CCC1C2CCC2(C)C(C(=O)CC(O)C(F)(F)F)CCC12` (stereo not given) and `CC(=O)O[C@H]1CC[C@@]2(C)C(=CC[C@H]3[C@@H]4C[C@H](N5CCOCC5)[C@H](OC(C)=O)[C@@]4(C)CC[C@@H]32)C1` cannot be ordered by TGI: > 76.5 µM for the first, > 100 µM for the second.

Compared with `CC(C)(C)OC(=O)NCCCNC1(c2cc3ccccc3s2)CCCCC1`, `Nc1nc(Cl)cc(NCC2(CO)CCCC2)n1` is higher in TGI: 27.5 µM for the first, > 100 µM for the second.

`COC1C=COC2(C)Oc3c(C)c(O)c4c(O)c(c(C5SCCS5)c(O)c4c3C2=O)NC(=O)C(C)=C/C=C\C(C)C2OC(C)(C)OC(C2C)C(C)C(OC(C)=O)C1C` (stereo not given) and `C=C([C@@]1(O)C[C@H]2[C@H](CCC2(OC)OC)[C@@H]2c3ccccc3O[C@@H]21)[Si](C)(C)C` cannot be ordered by TGI: > 100 µM for the first, > 100 µM for the second.

`C=CCOc1ccc(C2(O)c3ccccc3C3=NCCCN32)cc1` (stereo not given) and `On1c(-c2ccccc2)nc2ccccc2c1=S` cannot be ordered by TGI: > 100 µM for the first, > 100 µM for the second.

Going from `CCOC(=O)NC(Nc1ccc([N+](=O)[O-])cc1)(C(F)(F)F)C(F)(F)F` to `CCC/C(Cl)=N\OC(=O)Nc1ccc(OC(F)(F)F)cc1`, the TGI falls from > 100 µM to 35.9 µM.

`C[N+]12CCCCC1C(CN1C(=O)Cc3c4ccccc4c(c4ccccc34)CC1=O)CCC2` (stereo not given) and `CC1=NNC(=O)C1C(CC(=O)c1c[nH]c2ccccc12)C(=O)O` (stereo not given) cannot be ordered by TGI: > 100 µM for the first, > 100 µM for the second.

Going from `CCN1CCC(O)(/C=C/c2ccc(C)cc2C)C(C(=O)/C=C/c2ccc(C)cc2C)C1` (stereo not given) to `Nc1ccc(C(=O)N2CCC[C@H]2CO)c(N)c1`, the TGI rises from 14.7 µM to > 100 µM.

`Nc1ccc(S2(c3ccc(N)cc3)C=C(c3ccccc3)C(c3ccccc3)=C2)cc1` and `COC(=O)C1=C(C)NC(C)=C(C(=O)OC)C1c1nc2sccn2c1[N+](=O)[O-]` cannot be ordered by TGI: > 100 µM for the first, > 100 µM for the second.

`CN(C)CCOC1(Cc2ccc(F)cc2)CCC(C(C)(C)C)CC1` (stereo not given) was tested, and the TGI was 21 µM and 20.5 µM.

tested on: LOX IMVI melanoma; assay: NCI-60 cell line screen, 48 h

`COc1ccc(C2OC(c3ccncc3)=NN2C)cc1OC` (stereo not given) and `C=CCOc1ccc(C2(O)c3ccccc3C3=NCCCN32)cc1` (stereo not given) cannot be ordered by TGI: > 100 µM for the first, > 100 µM for the second.

Compared with `CC12CCC(O)CC1CCC1C2CCC2(C)C(C(=O)CC(O)C(F)(F)F)CCC12` (stereo not given), `CCC/C(Cl)=N\OC(=O)Nc1ccc(OC(F)(F)F)cc1` is lower in TGI: > 100 µM for the first, 8.78 µM for the second.

First: CC(C)(C)OC(=O)NCCCNC1(c2cc3ccccc3s2)CCCCC1
Second: CCOC(=O)NC(Nc1ccc([N+](=O)[O-])cc1)(C(F)(F)F)C(F)(F)F
The TGI of the first is lower: 35.2 µM for the first, > 100 µM for the second.

`COC1C=COC2(C)Oc3c(C)c(O)c4c(O)c(c(C5SCCS5)c(O)c4c3C2=O)NC(=O)C(C)=C/C=C\C(C)C2OC(C)(C)OC(C2C)C(C)C(OC(C)=O)C1C` (stereo not given) was tested, and the TGI was 28.3 µM.
